Assay results published in patent publication US20240270758A1, “PYRIDINO-OR PYRIMIDO-CYCLIC COMPOUND, PREPARATION METHOD THEREFOR AND MEDICAL USE THEREOF” (Genfleet Therapeutics (Shanghai) Inc., priority 2021, published 2024).

Assays:
Type in all cases: cell-based, human
[1] = tested on: p-ERK in AGS cells (KRAS^G12D mutation); assay: Cell p-ERK detection assay; conditions: 3 h incubation, HTRF
Description: AGS was purchased from ATCC; Cat. NO.: CRL-1739; F12K was purchased from Gibco; Cat. NO.: 21127-022; FBS was purchased from Gibco; Cat. NO.: 10099-141C; Trypsin (containing EDTA) was purchased from Gibco; Cat. NO.: 25200-072; DMSO was purchased from VWRAMRESCO; Cat. NO.: 0231-500ML; 96-well cell culture plate was purchased from Corning; Cat. NO.: 3599; An white background opaque 96-well plate was purchased from Cisbio; Cat. NO.: 66PL96025; Advance ERK phospho-T202/Y204 kit was purchased from Cisbio; Cat. NO.: 64AERPEH; Cell Counters were purchased from CHEMOMETEC; Model NO.: NC-200; microplate reader was purchased from PerkinElmer; Model NO.: Envison.
AGS is an endogenous human gastric adenocarcinoma cell line containing KRAS^G12D mutation, cultured in F12K+10% FBS medium. On the first day of the experiment, cells in the logarithmic growth phase were taken, digested with trypsin (containing EDTA), collected, and counted, and approximately 20,000 cells/well were inoculated in 96-well cell culture plates and cultured overnight in a 5% CO2 incubator. A 1000×3.16-fold gradient concentration stock of the compound was prepared using DMSO, diluted 200-fold into a 5× compound stock using the medium described above, and a 5× compound stock was added to each cell culture well the day after cell inoculating at a final concentration of 1× and a DMSO content of 0.1%. DMSO was used as an experimental control. After the compound was added and the incubation was continued for 3 h, the medium in the culture wells was removed, […] of cell lysis solution (from Advance ERK phospho-T202/Y204 kit, the same below) was added to each well, mixed well and incubated for 30 min, then […] of the mixed solution was transferred to a white background opaque 96-well plate, and another well was taken as a blank well with adding […] of cell lysis solution. After the transfer, […] of p-ERK HTRF antibody mixed solution (from Advance ERK phospho-T202/Y204 kit) was added to each well, after incubation for 4 h, HTRF fluorescence value (RLU) was read by a microplate reader, and p-ERK level inhibition ratio of the compound was calculated IR (%)=(RLU control-RLU compound)/(RLU control-RLU blank)×100%, compound concentration and corresponding cell p-ERK level inhibition ratio were fitted using Prism 8 four-parameter method, and IC50 value was calculated.

[2] = tested on: AGS cells (KRAS^G12D mutation); assay: Cell proliferation inhibition assay (3D, CellTiter-Glo), AGS; conditions: 3D cell model, 5 days
Text: (§1) AsPC-1 was purchased from ATCC; Cat. NO.: CRL-1682; AGS was purchased from ATCC; Cat. NO.: CRL-1739; RPMI1640 was purchased from Gibco; Cat. NO.: 11875-093 2235123; F12K was purchased from Gibco; Cat. NO.: 21127-022; FBS was purchased from Gibco; Cat. NO.: 10099-141C; Trypsin (containing EDTA) was purchased from Gibco; Cat. NO.: 25200-072; CellTiter Glo-3D was purchased from Progema; Cat. NO.: G9683; 384-well sphere plates were purchased from coming; Cat. NO.: 3830; White background opaque 384-well plates were purchased from coming; Cat. NO.: 3570; Cell Counters were purchased from CHEMOMETEC; Model NO.: NC-200; microplate reader was purchased from PerkinElmer; Model NO.: Envison;
(§2) AsPC-1 is an endogenous human pancreatic cancer cell containing KRAS^G12D mutation, which is cultured in RPMI-1640 medium containing 10% FBS; AGS human gastric cancer cell line containing KRAS^G12D mutation, cultured in F-12K medium containing 10% FBS. Cells in the logarithmic growth phase were taken, digested with trypsin (containing EDTA), harvested and counted, and inoculated with 800 AsPC-1 cells/well or 400 AGS cells/well, respectively, in 384-well sphere plates and cultured overnight at 5% C02 to establish a 3D cell model. A 3.16-fold gradient concentration stock solution of 1000× compound was prepared using DMSO, diluted 100-fold into a 10× compound stock solution using media, and a 10× compound stock solution was added to each cell culture well the day after cell inoculating at a final concentration of 1× with a DMSO content of 0.1%. DMSO was used as an experimental control (control) and culture medium as a blank control (blank). After the addition of compounds, the cells were cultured for 5 days. […] CellTiter-Glo working solution was added to each well, mixed well, and incubated for 30 min. After standing for 30 min at room temperature, 40 μl of the mixed solution was transferred to a white background opaque 384-well plate. Luminescence chemiluminescence value was read on a microplate reader, and the cell proliferation inhibition ratio was calculated, IR (%)=(RLU control-RLU compound)/(RLU control-RLU blank)×100%. XLFit four-parameter method was used to fit the gradient dilution concentration of compounds and the corresponding cell proliferation inhibition ratio, and the IC50 value was calculated. […] Results for exemplary of the example compounds are shown in Table 3 below. - indicates not detected.

[3] = tested on: AsPC-1 cells (KRAS^G12D mutation); assay: Cell proliferation inhibition assay (3D, CellTiter-Glo), AsPC-1; conditions: 3D cell model, 5 days
Text: as §1, §2

Row | SMILES | IC50 ([1]; Homo sapiens, AGS, 3 h) | IC50 ([2]; Homo sapiens, AGS, 120 h) | IC50 ([3]; Homo sapiens, ASPC1, 120 h) | IC50 [1] | IC50 [2] | IC50 [3]
1 | C#Cc1c(Cl)ccc2cc(O)cc(-c3ncc4c(N5C[C@H]6CC[C@@H](C5)N6)nc(OCC56CC(=C)CN5CC(=C)C6)nc4c3F)c12 [Example Z216, 4-(4-((1R,5S)-3,8-diazabicyclo[3.2.1]octan-3-yl)-2-((2,6-dimethylenetetrahydro-1H-pyrrolizin-7a(5H)-yl)methoxy)-8-fluoropyrido[4,3-d]pyrimidin-7-yl)-6-chloro-5-ethynylnaphthalen-2-ol] | 1.22 nM | 3.14 nM | 43.7 nM |  |  | 
2 | C#Cc1cccc2cc(O)cc(-c3ncc4c(N5C[C@H]6CC[C@@H](C5)N6)nc(OCC56CCCN5CC(=C(F)F)C6)nc4c3F)c12 (stereo partly drawn) [Example Z27, 4-(4-((1R,5S)-3,8-diazabicyclo[3.2.1]octan-3-yl)-2-((2-(difluoromethylene)tetrahydro-1H-pyrrolizine 7a(5H)-yl)methoxy)-8-fluoropyrido[4,3-d]pyrimidin-7-yl)-5-ethynylnaphthalen-2-ol] | 1.1 nM | 3.1 nM | 6.9 nM |  |  | 
3 | C#Cc1cccc2cc(N)cc(-c3ncc4c(N5C[C@H]6CC[C@@H](C5)N6)nc(OCC56CC(=C)CN5CC(=C)C6)nc4c3F)c12 [Example Z206, 4-(4-((1R,5S)-3,8-diazabicyclo[3.2.1]octan-3-yl)-2-((2,6-dimethylenetetrahydro-1H-pyrrolizin-7a(5H)-yl)methoxy)-8-fluoropyrido[4,3-d]pyrimidin-7-yl)-5-ethynylnaphthalen-2-amine] |  |  |  | 5.47 nM | 20.1 nM | 35.4 nM
4 | C#Cc1cccc2cc(N)cc(-c3ncc4c(N5C[C@H]6CC[C@@H](C5)N6)nc(OCC56CC(=C)CN5CC(=C)C6)nc4c3F)c12 [Example Z214, 4-(4-((1R,5S)-3,8-diazabicyclo[3.2.1]octan-3-yl)-2-((2,6-dimethylenetetrahydro-1H-pyrrolizin-7a(5H)-yl)methoxy)-8-fluoropyrido[4,3-d]pyrimidin-7-yl)-5-ethynylnaphthalen-2-amine] |  |  |  | 105 nM | 106 nM | 611 nM
5 | C#Cc1cccc2cccc(-c3ncc4c(N5C[C@H]6CC[C@@H](C5)N6)nc(OCC56CC(=C)CN5CC(=C)C6)nc4c3F)c12 [Example Z190, 4-((1R,5S)-3,8-diazabicyclo[3.2.1]octan-3-yl)-2-((2,6-dimethylenetetrahydro-1H-pyrrolizin-7a(5H)-yl)methoxy)-7-(8-ethynylnaphthalen-1-yl)-8-fluoropyrido[4,3-d]pyrimidine] | 105 nM | 204 nM | 485 nM |  |  | 
6 | C#Cc1c(F)ccc2cc(O)cc(-c3ncc4c(N5C[C@H]6CC[C@@H](C5)N6)nc(OCC56CC(=C)CN5CC(=C(F)F)C6)nc4c3F)c12 (stereo partly drawn) [Example Z215] |  |  |  | 1.19 nM | 5.13 nM | 49.4 nM
7 | C=C1CN2CCCC2(COc2nc(N3C[C@H]4CC[C@@H](C3)N4)c3cnc(-c4cc(O)cc5cccc(F)c45)c(F)c3n2)C1 (stereo partly drawn) [Example Z24, 4-(4-((1R,5S)-3,8-diazabicyclo[3.2.1]octan-3-yl)-8-fluoro-2-((2-methylenetetrahydro-1H-pyrrolizin-7a(5H)-yl)methoxy)pyrido[4,3-d]pyrimidin-7-yl)-5-fluoronaphthalen-2-ol] | 3.59 nM | 3.3 nM | 56 nM |  |  | 
8 | C#Cc1c(F)ccc2cc(O)cc(-c3ncc4c(N5C[C@H]6CC[C@@H](C5)N6)nc(OCC56CC(=C)CN5[C@H]5C[C@H]5C6)nc4c3F)c12 (stereo partly drawn) [Example Z210, 4-(4-((1R,5S)-3,8-diazabicyclo[3.2.1]octan-3-yl)-8-fluoro-2-(((1aS,6aS)-4-methylenehexahydrocyclopropa[b]pyrrolizin-5a(3H)-yl)methoxy)pyrido[4,3-d]pyrimidin-7-yl)-5-ethynyl-6-fluoronaphthalen-2-ol] | 16.6 nM | 26 nM | 176 nM |  |  | 
9 | C#Cc1cccc2cc(O)cc(-c3ncc4c(N5C[C@H]6CC[C@@H](C5)N6)nc(OCC56CC(=C)CN5CC(=C)C6)nc4c3F)c12 [Example Z21] |  |  |  | 0.6 nM | 6.5 nM | 14.7 nM
